Measurements as given in US5763413A, “Lewis-associated compound, process for producing the same, and anti-inflammatory” (MECT Corporation, priority 1993, dated 1998).

Columns and labels:
passive Arthus reaction [1] = assay: Anti-inflammatory activity test, carried out as Example of Test 2 (Example of Test 3); assay type: in vivo, male guinea pigs of the Hartley strain; details: Table 22, i.v.
Description: (§1) Male guinea pigs of the Hartley strain weighing 200~250 g were used.
(§2) The anti-ovalbumin rabbit serum (PCA titer=1/80,000) and ovalbumin were used as the antiserum and antigen, respectively.
(§3) The passive Arthus reaction was performed according to the method of Katayama et al. [Katayama, S. et al., Arzeim-Forsch., 31, 1196 (1981)]. That is, guinea pigs were sensitized by an intravenous injection of said anti-ovalbumin rabbit serum (2.5 ml/kg). Thirty minutes after the injection, the Arthus reaction was induced by the intradermal injection of an antigen solution (0.05 ml) containing 0.10 mg of ovalbumin to the abdomen shaved the day before. Two hours after the antigen challenge, the area of intradermal bleeding was measured and used as the index representing the grade of inflammatory reaction. Test compounds were intravenously injected 30 min before the antigen injection. Four guinea pigs per each group were used.
(§4) The percent inhibi- is expressed as the bleeding area of the challenged site (%) of the animal group injected with each compound relative to that (100%) of the group administered with the physiological saline.
The anti-inflammatory activity test of compounds of the present invention was similarly carried out as in the case of Example of Test 2.

passive Arthus reaction [2] = assay: Anti-inflammatory activity test: passive Arthus reaction (Example of Test 2); assay type: in vivo, male guinea pigs of the Hartley strain; details: Table 21, 30 min before antigen
Description: Example of Test 2 (Anti-inflammatory Activity Test)
as §1
(2) Experimental Materials
as §2, §3, §4

[3] = Simple acute toxicity test (intravenous injection); assay type: in vivo, male mice of ddY strain; details: i.v. (tail vein), ddY mice
Description: Example of Test 1 (Simple Acute Toxicity Test)
The simple acute toxicity test was carried out by an intravenous injection of compounds of the present invention.
Into the tail vein of male mice of ddY strain weighing 18~20 g which have been kept under the conditions at the temperature of 23°±1° C. and in the humidity of 55 ±7% were injected a solution of the compound of the present invention dissolved in the physiological saline containing the desired dose per 20 g body weighing 0.2 ml. Two dosages of which were 50 mg/kg and 500 mg/kg body weight were used.

SMILES | Percent inhibition (passive Arthus reaction) (passive Arthus reaction [1]; 0.01 mg/kg) [%] | Percent inhibition (passive Arthus reaction) (passive Arthus reaction [1]; 0.1 mg/kg) [%] | Percent inhibition (passive Arthus reaction) (passive Arthus reaction [1]; 1 mg/kg) [%] | Percent inhibition (passive Arthus reaction) (passive Arthus reaction [2]; 1 mg/kg i.v., 1 mg/kg) [%] | Percent inhibition (passive Arthus reaction) (passive Arthus reaction [2]; 3 mg/kg i.v., 3 mg/kg) [%] | Mortality ([3]; 50 mg/kg) | Mortality ([3]; 500 mg/kg) | Percent inhibition (passive Arthus reaction) (passive Arthus reaction [2]; 1 mg/kg i.v.) [%] | Percent inhibition (passive Arthus reaction) (passive Arthus reaction [2]; 3 mg/kg i.v.) [%] | Percent inhibition (passive Arthus reaction) (passive Arthus reaction [1]; 0.001 (unit of dose not given)) [%]
COc1ccc(OC2OC(CO)C(OC3OC(CO)C(O)C(OS(=O)(=O)[O-])C3OC(=O)C(C)(C)C)C(OC3OC(C)C(O)C(O)C3O)C2OC(=O)C(C)(C)C)cc1.[Na+] (stereo not drawn) [Compound 142] | -3.3 ± 2.7 | 57.6 ± 12.6 | 84.8 ± 4.6 |  |  |  |  |  |  | 
CCCOC1OC(CO)C(OC2OC(CO)C(O)C(OC3(C(=O)[O-])CC(O)C(NC(C)=O)C(C(O)C(O)CO)O3)C2O)C(OC2OC(C)C(O)C(O)C2O)C1NC(C)=O.[Na+] (stereo not drawn) [Compound 40] |  |  |  | 47.3 ± 7.4 | 63.5 ± 8.3 | 0/3 | 0/3 |  |  | 
CC(=O)NC1C(O)CC(OC2C(O)C(CO)OC(OC3C(CO)OC(OCC4OC(O)C(O)C(O)C4O)C(NC(C)=O)C3OC3OC(C)C(O)C(O)C3O)C2O)(C(=O)[O-])OC1C(O)C(O)CO.[Na+] (stereo not drawn) [Compound 53] |  |  |  |  |  | 0/3 | 0/3 | 44.8 ± 15.0 | 58.7 ± 9.5 | 
CCCOC1OC(CO)C(OC2OC(C)C(O)C(O)C2O)C(OC2OC(CO)C(O)C(OCC(=O)[O-])C2OCC(=O)[O-])C1NC(C)=O.[Na+].[Na+] (stereo not drawn) [Compound 31] |  |  |  |  |  | 0/3 | 0/3 | 74.5 ± 6.7 | 15.9 ± 6.4 | 
CCCOC1OC(CO)C(OC2OC(C)C(O)C(O)C2O)C(OC2OC(CO)C(O)C(OS(=O)(=O)[O-])C2O)C1NC(C)=O.[Na+] (stereo not drawn) [Compound 189] | 73.6 ± 8.9 | 59.8 ± 9.7 |  |  |  |  |  |  |  | 90.9 ± 4.0
CCCOC1OC(CO)C(OC2OC(CO)C(O)C(OS(=O)(=O)[O-])C2O)C(OC2OC(C)C(O)C(O)C2O)C1NC(C)=O.[Na+] (stereo not drawn) [Compound 10] |  |  |  |  |  | 0/3 | 0/3 | 25.5 ± 17.4 | 64.8 ± 3.4 | 
CCCOC1OC(CO)C(OC2OC(CO)C(O)C(OCC(=O)[O-])C2OCC(=O)[O-])C(OC2OC(C)C(O)C(O)C2O)C1NC(C)=O.[Na+].[Na+] (stereo not drawn) [Compound 18] |  |  |  |  |  | 0/3 | 0/3 | 75.7 ± 3.9 | 60.8 ± 9.8 | 
COc1ccc(OC2OC(CO)C(OC3OC(CO)C(O)C(OS(=O)(=O)[O-])C3O)C(OC3OC(C)C(O)C(O)C3O)C2O)cc1.[Na+] (stereo not drawn) [Compound 143] | 84.1 ± 5.2 | 52.5 ± 12.2 | 70.1 ± 1.8 |  |  |  |  |  |  | 
CCCOC1OC(CO)C(OC2OC(C)C(O)C(O)C2O)C(OC2OC(CO)C(OS(=O)(=O)[O-])C(O)C2O)C1NC(C)=O.[Na+] (stereo not drawn) [Compound 190] | 79.3 ± 4.7 | 76.9 ± 4.1 |  |  |  |  |  |  |  | 12.7 ± 6.3
CC(=O)NC1C(O)CC(OC2C(O)C(CO)OC(OC3C(CO)OC(OC4C(O)C(O)OC(CO)C4O)C(NC(C)=O)C3OC3OC(C)C(O)C(O)C3O)C2O)(C(=O)[O-])OC1C(O)C(O)CO.[Na+] (stereo not drawn) [Compound 62] |  |  |  |  |  | 0/3 | 0/3 | 41.9 ± 8.9 | 57.4 ± 7.3 | 
CCCOC1OC(CO)C(OC2OC(C)C(O)C(O)C2O)C(OC2OC(CO)C(O)C(O)C2OS(=O)(=O)[O-])C1NC(C)=O.[Na+] (stereo not drawn) [Compound 175] | 44.6 ± 20.1 | 62.5 ± 16.1 | 67.1 ± 4.4 |  |  |  |  |  |  | 
CCCOC1OC(CO)C(OC2OC(CO)C(O)C(OC3(C(=O)[O-])CC(O)C(NC(C)=O)C(C(O)C(O)CO)O3)C2O)C(OC2OC(C)C(O)C(O)C2O)C1NC(C)=O.[Na+] (stereo not drawn) [Compound 121] |  |  |  | 42.1 ± 8.3 | 59.8 ± 5.3 | 0/3 | 0/3 |  |  | 
CCCOC1OC(CO)C(OC2OC(C)C(O)C(O)C2O)C(OC2OC(CO)C(O)C(OC3(C(=O)[O-])CC(O)C(NC(C)=O)C(C(O)C(O)CO)O3)C2O)C1NC(C)=O.[Na+] (stereo not drawn) [Compound 123] |  |  |  | 76.8 ± 12.0 | 84.5 ± 5.1 | 0/3 | 0/3 |  |  | 
CCCOC1OC(CO)C(OC2OC(C)C(O)C(O)C2O)C(OC2OC(CO)C(O)C(O)C2OCC(=O)[O-])C1NC(C)=O.[Na+] (stereo not drawn) [Compound 32] |  |  |  |  |  | 0/3 | 0/3 | 61.0 ± 4.2 | 57.4 ± 8.7 | 
CCCOC1OC(CO)C(OC2OC(C)C(O)C(O)C2O)C(OC2OC(CO)C(O)C(OCC(=O)[O-])C2O)C1NC(C)=O.[Na+] (stereo not drawn) [Compound 30] |  |  |  |  |  | 0/3 | 0/3 | 21.0 ± 5.9 | 15.4 ± 5.3 | 
CCCOC1OC(CO)C(OC2OC(C)C(O)C(O)C2O)C(OC2OC(CO)C(OS(=O)(=O)[O-])C(OS(=O)(=O)[O-])C2OS(=O)(=O)[O-])C1NC(C)=O.[Na+].[Na+].[Na+] (stereo not drawn) [Compound 176] | 57.5 ± 14.7 | 83.9 ± 10.1 | 92.4 ± 3.8 |  |  |  |  |  |  | 
CCCOC1OC(CO)C(OC2OC(C)C(O)C(O)C2O)C(OC2OC(CO)C(O)C(OC3(C(=O)[O-])CC(O)C(NC(C)=O)C(C(O)C(O)CO)O3)C2O)C1NC(C)=O.[Na+] (stereo not drawn) [Compound 90] |  |  |  | 65.4 ± 8.5 | 69.6 ± 6.3 | 0/3 | 0/3 |  |  | 
CCCOC1OC(CO)C(OC2OC(CO)C(O)C(OCC(=O)[O-])C2O)C(OC2OC(C)C(O)C(O)C2O)C1NC(C)=O.[Na+] (stereo not drawn) [Compound 17] |  |  |  |  |  | 0/3 | 0/3 | 45.5 ± 3.5 | 14.9 ± 14.5 | 
COc1ccc(OC2OC(CO)C(OC3OC(CO)C(OS(=O)(=O)[O-])C(O)C3O)C(OC3OC(C)C(O)C(O)C3O)C2O)cc1.[Na+] (stereo not drawn) [Compound 144] | -15.2 ± 6.7 | 22.0 ± 30.1 | 23.9 ± 14.7 |  |  |  |  |  |  | 
CCCCCCCCCCCCCCCCCCCCCCCC(=O)NC(COC1OC(CO)C(OC2OC(CO)C(O)C(OC3(C(=O)[O-])CC(O)C(NC(C)=O)C(C(O)C(O)CO)O3)C2O)C(OC2OC(C)C(O)C(O)C2O)C1NC(C)=O)C(O)CCCCCCCCCCCCCCC.[Na+] (stereo not drawn) [Compound 46] |  |  |  |  |  | 0/3 | 0/3 | 25.6 ± 11.3 | 74.4 ± 16.3 | 
CCCOC1OC(CO)C(OC2OC(CO)C(OS(=O)(=O)[O-])C(OS(=O)(=O)[O-])C2OS(=O)(=O)[O-])C(OC2OC(C)C(O)C(O)C2O)C1NC(C)=O.[Na+].[Na+].[Na+] (stereo not drawn) [Compound 12] |  |  |  |  |  | 0/3 | 0/3 | 45.3 ± 6.7 | 67.8 ± 5.2 | 
CCCOC1OC(CO)C(OC2OC(C)C(O)C(O)C2O)C(OC2OC(CO)C(O)C(O)C2OS(=O)(=O)[O-])C1NC(C)=O.[Na+] (stereo not drawn) [Compound 188] | 57.2 ± 14.5 | 86.2 ± 1.7 |  |  |  |  |  |  |  | 84.2 ± 5.4
CCCOC1OC(CO)C(OC2OC(C)C(O)C(O)C2O)C(OC2OC(CO)C(O)C(OS(=O)(=O)[O-])C2O)C1NC(C)=O.[Na+] (stereo not drawn) [Compound 26] |  |  |  |  |  | 0/3 | 0/3 | 75.5 ± 1.6 | 77.3 ± 8.0 | 
